Reference: ChEMBL document CHEMBL1149060, “Structure of malhamensilipin A, an inhibitor of protein tyrosine kinase, from the cultured chrysophyte Poterioochromonas malhamensis” (J Nat Prod, 1994)

Test: Inhibition of Rous sarcoma virus pp60v-src

CCCCCCCCC(Cl)C(Cl)C(O)C(Cl)C(Cl)C(Cl)CCCCCCCC/C(Cl)=C\OS(=O)(=O)O (stereo unspecified) [MALHAMENSILIPIN A]
IC50: 35 µM
